From patent US20240327415A1, “Multicomponent Complexes, Including Salts, Crystalline Forms, and Hydrates and Solvates of ENT1 Inhibitors” (iTeos Belgium SA, priority 2023, published 2024) come the findings set out here.

Marks after values point to notes of the source that are not given here.

Holding throughout (type): physicochemical
Data set [1] is described as follows: TG/DSC and DSC thermal analysis. To be noted: listed as Crystalline Form 8 Compound 1 mono(hydrogen sulfate). The protocol:
In the examples below, to measure TGA/DSC, 2-10 mg of material was added into a pre-tared open aluminum pan and loaded into a TA Instruments Discovery SDT 650 Auto—Simultaneous DSC and held at room temperature. The sample was then heated at a rate of 10° C./min from 30° C. to 400° C. during which time the change in sample weight was recorded along with the heat flow response (DSC). Nitrogen was used as the sample purge gas, at a flow rate of 200 cm^3/min.
(§1) METHOD A: In Example 3, 1-5 mg of material was weighed into an aluminum DSC pan and sealed non-hermetically with a pierced aluminum lid. The sample pan was then loaded into a TA DSC2500 and held at 20° C. Once a stable heat-flow response was obtained, the sample and reference were heated to an upper temperature of 200° C. at a scan rate of 10° C./min and the resulting heat flow response monitored. The sample was held at the upper temperature for 3 minutes, before it was cooled at 10° C./min to 20° C., reheated to the upper temperature at 10° C./min, and then cooled again to 20° C. at the same rate. Nitrogen was used as the purge gas, at a flow rate of 50 cm^3/min.
as §1, with “B:” for “A:”, “Examples 2A, 14, and 17,” for “Example 3,”, “−80° C. and then” for “20° C.,”, “C./min.” for “C./min, and then cooled again to 20° C. at the same rate.”
METHOD C: In Example 5, 1-5 mg of a sample were weighed into an aluminum DSC pan and sealed non-hermetically with an aluminum lid. The sample pan was then loaded into a TA Instruments Discovery DSC 2500 differential scanning calorimeter equipped with a RC90 cooler. The sample and reference were heated to 190° C. at a scan rate of 10° C./min and the resulting heat flow response monitored. The sample was re-cooled to −80° C. and then reheated again to 190° C. all at 10° C./min. Nitrogen was used as the purge gas, at a flow rate of 50 cm^3/min.
2-10 mg of material was added into a pre-tared open aluminum pan and loaded into a TA Instruments Discovery SDT 650 Auto-Simultaneous DSC and held at room temperature. The sample was then heated at a rate of 10° C./min from 30° C. to 400° C. during which time the change in sample weight was recorded along with the heat flow response (DSC). Nitrogen was used as the sample purge gas, at a flow rate of 200 cm^3/min.
as §1, with “1-5” for “METHOD A: In Example 3, 1-5”, “min,” for “minutes,”

Data set [2] can be described thus: salt screen, XRPD of damp, dried and 40° C./75% RH stored samples (Salt Preparation Methods 1 and 2). Details: key to XRPD Analysis Damp/Dry: A = amorphous; Evap. = isolated via evaporation. The conditions noted are these: Benzoic acid, 1 equiv. The protocol: (§2) Salt Preparation Method 1: Approximately 25 mg of Compound 1 (free base) was weighed out into 1.5 mL screw-cap vials and a stirrer bar was added. For solid counterions, the appropriate amount of acid (1.0 or 2.0 equiv.) was weighed into separate 1.5 mL screw-cap vials. 100 μL of the appropriate solvent system was added to both the Compound 1 and the solid counterions. Stock solutions of liquid counterions were prepared, such that 100 μL contained 1.0 or 2.0 equiv. of acid. See counterion and solvent lists in Table 60 and Table 61 respectively.
(§3) The samples were stirred at 40° C. for 5-10 min and then the acid solutions were added to Compound 1, rinsing out the transfer vial with a further 50 μL of solvent. […] Experiments were temperature cycled between 40° C. and 5° C. (1 h hold; 0.1° C./min ramp/cool) for ca. 24-68 h. Anti-solvent addition (ASA) was carried out to slurries at 5° C. then experiments were heated to 30° C. over 1 h. ASA was carried out at 30° C. or 40° C. where clear solutions or gums were observed.
(§4) Temperature cycling was then continued for ca. 16-69 h, followed by further ASA and temperature cycling if required. Material was isolated at 5° C. and analyzed damp by XRPD. All isolated material was dried under vacuum at ca. 40° C. for ca. 17-91 h then re-analyzed by XRPD. The XRPD plate was stored at 40° C./75% RH for 24-48 h and then samples re-analyzed. Solutions were stored uncapped at ambient temperature to evaporate. Any residual solids were analyzed by XRPD.
(§5) Salt Preparation Method 2: The general procedure adopted in preparing the potential salts is outlined below. A known mass of Compound 1 (free base) and a known volume of the appropriate solvent system were added to 20 mL scintillation vials. The required mol. equiv. of the appropriate counterions were added to the vials as solutions or slurries in the corresponding solvent system.
(§6) The experiments were stirred at 40° C. for ca. 1 h, and then temperature cycled between 40° C. and 5° C. with 0.1° C./min ramp and 1 h hold between each step. Anti-solvent additions and subsequent slurrying at 5° C. were employed in order to facilitate crystallization. […] The damp and dried solids were subsampled and analyzed by XRPD. Where applicable, the dried solids were stored at 40° C./75% RH for 24-48 h in order to improve the crystallinity and/or facilitate solid form conversion to the desired form.

Assay in data set [3]: as above
To be noted: Benzoic acid, 1 equiv. On the set-up: key: A = amorphous; PC = poorly crystalline; *= predominantly; 1 = Form 1 Compound 1 benzoate; 2 = Form 2 Compound 1 benzoate; 3 = Form 3 Compound 1 benzoate. The procedure: as §2, §3, §4, §5, §6

Assay in data set [4]: as above
Details: key: A = amorphous; Evap. = isolated via evaporation. To be noted: Benzoic acid, 1 equiv., AS Heptane. Summed up:
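XRPD was recorded three times: on damp solids isolated at 5 °C, after ~17–91 h vacuum drying at ~40 °C, and after 24–48 h storage at 40 °C/75% RH. Solids came from stirring free base with 1.0 or 2.0 equiv. counterion at 40 °C, 40–5 °C temperature cycling, and anti-solvent addition.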

Data set [5] can be described thus: hydration mapping studies (slurries at different water activities, Example 17). On the set-up: key to XRPD, hydration studies - dried samples: A: amorphous; Crystalline Form 10 mono(hydrogen sulfate). The procedure:
Example 17—Hydration Mapping Studies-Crystalline Form 2 Compound 1 di(hydrogen sulfate) trihydrate, Crystalline Form 3 Compound 1 di(hydrogen sulfate), and Blend: The effects of different water activities on crystalline Form 2 Compound 1 di(hydrogen sulfate) trihydrate, crystalline Form 3 Compound 1 di(hydrogen sulfate) and a blend of the two were investigated. The “blend” was prepared by mixing crystalline Form 2 Compound 1 di(hydrogen sulfate) trihydrate and crystalline Form 3 Compound 1 di(hydrogen sulfate) in a 1:1 ratio. To the vials containing the required solid material, the appropriate solvent system was added to form slurries. The slurry samples were stirred at the required temperatures during and after the solvent addition. Where dissolution was observed post-solvent addition, additional solid was added to re-saturate the sample. After stirring at the required temperature for 48 hours, the residual solids left in the vials were analyzed by XRPD to assess the solid forms. The analyzed samples were then dried on the XRPD plate under reduced pressure at 40° C. for 24 hr. The dried samples were analyzed by XRPD.

As to `COc1cc(C(=O)O[C@@H]2CCCOc3cc(cc(OC)c3OC)C(=O)NCCCN3CCCN(CC2)CC3)cc(OC)c1OC.O=S(=O)(O)O`, in data set [1], the TGA/DSC mass loss was 7.2% mass loss. The “TGA/DSC thermal event, onset” value in data set [1] (value before the brackets) turned out to be 144 °C. Further, the “TGA/DSC thermal event, peak” value in data set [1] (value in brackets) worked out at 158 °C.
As for `O=C(O)c1ccccc1` [Benzoic acid, 1 equiv.], the “XRPD Analysis Damp/Dry” value in data set [2] (Acetonitrile, AS BME, (evap.)) is “A (evap.)”. Also, the “XRPD Analysis 40° C. 75% RH” value in data set [2] (Ethanol, AS Heptane) is recorded as 2 + 3; in data set [2] (IPA:H2O (75:25% v/v), AS tBME), 2 + 3; in data set [2] (MEK, AS Heptane), 1 + 3; in data set [3] (Ethyl acetate, AS Heptane), 1; in data set [3] (THF, AS Heptane) it was 3. Further, the “XRPD Analysis Damp” value was 2* in data set [2] (Ethanol, AS Heptane); 1* in data set [2] (MEK, AS Heptane); 1 + 2 in data set [2] (THF, AS Heptane); 1 in data set [3] (Ethyl acetate, AS Heptane); 2 in data set [3] (IPA:H2O (75:25% v/v), AS tBME). Also, the “XRPD Analysis Dry” value in data set [2] (MEK, AS Heptane) is recorded as 1, PC; in data set [3] (Ethyl acetate, AS Heptane), 1; in data set [3] (IPA:H2O (75:25% v/v), AS tBME) it was 2; in data set [4] (Ethanol) it was “A”; in data set [4] (THF) it was “A”.
`COc1cc(C(=O)O[C@@H]2CCCOc3cc(cc(OC)c3OC)C(=O)NCCCN3CCCN(CC2)CC3)cc(OC)c1OC.O=S(=O)(O)O.O=S(=O)(O)O` [blended material]: in data set [5] (50° C., Acetonitrile:Water, aw 0.9, dried 40° C. reduced pressure 24 hr), the “XRPD, hydration studies - dried samples” value is on record as “M10”. The “solid form by XRPD after slurrying” value in data set [5] (acetonitrile:water solvent systems with aw≤0.5, 48 hours) was “some crystalline Form 3 Compound 1 di(hydrogen sulfate) was retained”; in data set [5] (acetonitrile:water systems with aw>0.5, 48 hours) it was “Crystalline Form 2 Compound 1 di(hydrogen sulfate) trihydrate was observed”; in data set [5] (all the 2-propanol:water solvent systems, 48 hours) it was “Crystalline Form 2 Compound 1 di(hydrogen sulfate) trihydrate was also observed”.
